# Source: US20260083865A1, “PROSTATE SPECIFIC MEMBRANE ANTIGEN (PSMA) LIGANDS AND USE THEREOF” (priority 2022, published 2026)
# Entries after “also recorded” stand apart in the source; their conditions may differ. Numbered stars: 1 amine (or outer) side, 2 acyl side, 3 side chain; on linkers, the order of the positions; unused ones are H or OH. Bridge positions count the residues as written; N and C are the ends. Square brackets hold non-standard residues; d marks the D form. Peptide text beside a SMILES is read from it. * marks the point of attachment. DOTA = O=C(O)CN1CCN(CC(=O)O)CCN(CC(=O)*)CCN(CC(=O)O)CC1; Phe(4-Cl) = N[C@@H](Cc1ccc(Cl)cc1)C(=O)O; Arg(Me) = CNC(=N)NCCC[C@H](N)C(=O)O; X1 = O=C(CC1CCN([*:1])CC1)[*:2]; Lys(Me) = CNCCCC[C@H](N)C(=O)O; Tle = CC(C)(C)[C@H](N)C(=O)O; Aib = CC(C)(N)C(=O)O
# Test system: PSMA-expressing ST1273 tumors
# Experiment: Efficacy study in mice with PSMA-expressing ST1273 tumors (tumor volume)
# Assay type: in vivo
# Source text: The efficacy of ^177Lu-PSM-0194 (PSM-0194 labeled with radioactive Lutetium-177) was investigated in the PDX tumor model ST1273. […] The ST1273 PDX model was developed at XenoSTART (San Antonio, Texas, USA) and PSMA expression was confirmed by immunohistochemistry.
# ST1273 tumor fragments were transplanted subcutaneously at the right flank of female NMRI nu/nu mice. In brief, the parent animals with ST1273 PDX tumors for transplantation were euthanized by cervical dislocation. The tumors were resected and trimmed to remove the connective tissues. The tumors were put in a Petri dish with PBS and cut with a scalpel into pieces of approximately 5×5×5 mm. Recipient mice were anesthetized (isoflurane, 1-3% in ambient air supplemented with 100% O2) and an incision cut in the skin on the back. Room was made for the tumor between the muscle and skin with forceps. The tumor pieces were dipped in PBS before being placed under the skin with forceps. The incision was closed with a 7 mm wound clip. Another incision was cut in the skin on the back, where a testosterone rod was inserted subcutaneously with forceps (PreclinApps, Testosterone MedRod 75 μg/day, drug release duration 100 days). The incision was closed with non-absorbable prolene 5-0 sutures and animals were chipped for identification and allowed to recover from anesthesia. Tumor growth and animal weight were measured twice a week starting 7 days after inoculation. Tumor size was measured by caliper and the volume was estimated using the following formula 0.52×(length×width^2).
# 6-7 weeks after inoculation, three mice with ST1273 PDX tumors were dosed with ^177Lu-PSM-0194 and were subjected to SPECT/computed tomography scans. Tumor size measurement was continued for 42 days after dosing. In brief, PSM-0194 was labeled with radioactive Lutetium-177 with a molar activity of 30 MBq/nmol. An activity dose of 30 MBq per mouse was injected intravenously. The mice injected with ^177Lu—PSM-0194 underwent SPECT/computed tomography scans at 4, 24, and 72 hours p.i. to evaluate the distribution of ^177Lu-PSM-0194 in different tissues. Regions of interest (ROI) were drawn based on computed tomography images for the tumor and following organs: heart (estimate of blood), kidney (left), kidney (right), and tail. Uptake of ^177Lu-PSM-0194 (% ID/g, decay-corrected) in the corresponding ROI was determined by quantitative imaging analysis. […] Highest uptake in non-tumor organs was found in the kidneys with a favorable tumor-to-kidney ratio of 3.3-3.4.
# The tumor size measurements were continued for 42 days after dosing. The effect of therapy ^177Lu—PSM-0194 on the tumor volume was evaluated for each individual mouse. […] Tumor volume continued declining to a nadir on day 20, with a mean tumor volume (MTV) of 16±16 mm^3 (mean SEM). […] For the calculation of relative volumes, the tumor volumes on the day of dosing (day 0) were set to 100%.
structure (smiles),measurement,setting,value
"CNCCCC[C@@H]1NC(=O)[C@@H](NC(=O)[C@H](Cc2ccc(Cl)cc2)NC(=O)C(C)(C)NC(=O)[C@@H](NC(=O)CC2CCN(C(=O)CN3CCN(CC(=O)O)CCN(CC(=O)O)CCN(CC(=O)O)CC3)CC2)[C@@H](C)O)CSSC[C@@H](C(=O)N[C@H](C(=O)N[C@H](C(N)=O)[C@@H](C)O)C(C)(C)C)NC(=O)[C@H](CC(N)=O)NC(=O)C(C)(C)NC(=O)[C@H](CCCNC(=N)NC)NC1=O [^177Lu-PSM-0194, metal not drawn] ({DOTA}-[X1]T[Aib][Phe(4-Cl)]C[Lys(Me)][Arg(Me)][Aib]NC[Tle]T-NH2; disulfide 5-10)",effect of therapy on the tumor volume,"ST1273 PDX mice, 30 MBq i.v., followed 42 days after dosing",reduction of the tumor volumes; also recorded: strong tumor regression and sustained tumor suppression
same,start of re-growth of the tumor,"animal M10, 30 MBq i.v.",23 days
same,tumor volume,"animal M10, day 42 after dosing, 30 MBq i.v.",407 mm^3
same,mean tumor volume (MTV) at nadir,"day 20 after dosing, 30 MBq i.v., three mice, mean SEM",16±16 mm^3
same,Tumor volumes,"mouse M9, study day 2",390 mm^3
same,Relative tumor volume,"mouse M9, study day 2, day 0 = 100%",112%
same,Tumor volumes,"mouse M9, study day 6",124 mm^3
same,Relative tumor volume,"mouse M9, study day 6, day 0 = 100%",36%
same,Tumor volumes,"mouse M9, study day 9",65 mm^3
same,Relative tumor volume,"mouse M9, study day 9, day 0 = 100%",19%
same,Tumor volumes,"mouse M9, study day 13",31 mm^3
same,Relative tumor volume,"mouse M9, study day 13, day 0 = 100%",9.0%
same,Tumor volumes,"mouse M9, study day 16",43 mm^3
same,Relative tumor volume,"mouse M9, study day 16, day 0 = 100%",12%
same,Tumor volumes,"mouse M9, study day 20",0 mm^3
same,Relative tumor volume,"mouse M9, study day 20, day 0 = 100%",0.0%
same,Tumor volumes,"mouse M9, study day 23",0 mm^3
same,Relative tumor volume,"mouse M9, study day 23, day 0 = 100%",0.0%
same,Tumor volumes,"mouse M9, study day 27",0 mm^3
same,Relative tumor volume,"mouse M9, study day 27, day 0 = 100%",0.0%
same,Tumor volumes,"mouse M9, study day 30",0 mm^3
same,Relative tumor volume,"mouse M9, study day 30, day 0 = 100%",0.0%
same,Tumor volumes,"mouse M9, study day 34",0 mm^3
same,Relative tumor volume,"mouse M9, study day 34, day 0 = 100%",0.0%
same,Tumor volumes,"mouse M9, study day 37",0 mm^3
same,Relative tumor volume,"mouse M9, study day 37, day 0 = 100%",0.0%
same,Tumor volumes,"mouse M9, study day 41",0 mm^3
same,Relative tumor volume,"mouse M9, study day 41, day 0 = 100%",0.0%
same,Tumor volumes,"mouse M9, study day 42",0 mm^3
same,Relative tumor volume,"mouse M9, study day 42, day 0 = 100%",0.0%
same,Tumor volumes,"mouse M10, study day 2",633 mm^3
same,Relative tumor volume,"mouse M10, study day 2, day 0 = 100%",134%
same,Tumor volumes,"mouse M10, study day 6",372 mm^3
same,Relative tumor volume,"mouse M10, study day 6, day 0 = 100%",79%
same,Tumor volumes,"mouse M10, study day 9",346 mm^3
same,Relative tumor volume,"mouse M10, study day 9, day 0 = 100%",73%
same,Tumor volumes,"mouse M10, study day 13",242 mm^3
same,Relative tumor volume,"mouse M10, study day 13, day 0 = 100%",51%
same,Tumor volumes,"mouse M10, study day 16",94 mm^3
same,Relative tumor volume,"mouse M10, study day 16, day 0 = 100%",20%
same,Tumor volumes,"mouse M10, study day 20",49 mm^3
same,Relative tumor volume,"mouse M10, study day 20, day 0 = 100%",10%
same,Tumor volumes,"mouse M10, study day 23",66 mm^3
same,Relative tumor volume,"mouse M10, study day 23, day 0 = 100%",14%
same,Tumor volumes,"mouse M10, study day 27",113 mm^3
same,Relative tumor volume,"mouse M10, study day 27, day 0 = 100%",24%
same,Tumor volumes,"mouse M10, study day 30",114 mm^3
same,Relative tumor volume,"mouse M10, study day 30, day 0 = 100%",24%
same,Tumor volumes,"mouse M10, study day 34",172 mm^3
same,Relative tumor volume,"mouse M10, study day 34, day 0 = 100%",36%
same,Tumor volumes,"mouse M10, study day 37",289 mm^3
same,Relative tumor volume,"mouse M10, study day 37, day 0 = 100%",61%
same,Tumor volumes,"mouse M10, study day 41",608 mm^3
same,Relative tumor volume,"mouse M10, study day 41, day 0 = 100%",129%
same,Tumor volumes,"mouse M10, study day 42",607 mm^3
same,Relative tumor volume,"mouse M10, study day 42, day 0 = 100%",129%
same,Tumor volumes,"mouse M12, study day 2",476 mm^3
same,Relative tumor volume,"mouse M12, study day 2, day 0 = 100%",53%
same,Tumor volumes,"mouse M12, study day 6",427 mm^3
same,Relative tumor volume,"mouse M12, study day 6, day 0 = 100%",47%
same,Tumor volumes,"mouse M12, study day 9",196 mm^3
same,Relative tumor volume,"mouse M12, study day 9, day 0 = 100%",23%
same,Tumor volumes,"mouse M12, study day 13",82 mm^3
same,Relative tumor volume,"mouse M12, study day 13, day 0 = 100%",9.1%
same,Tumor volumes,"mouse M12, study day 16",109 mm^3
same,Relative tumor volume,"mouse M12, study day 16, day 0 = 100%",12%
same,Tumor volumes,"mouse M12, study day 20",0 mm^3
same,Relative tumor volume,"mouse M12, study day 20, day 0 = 100%",0.0%
same,Tumor volumes,"mouse M12, study day 23",55 mm^3
same,Relative tumor volume,"mouse M12, study day 23, day 0 = 100%",6.1%
same,Tumor volumes,"mouse M12, study day 27",56 mm^3
same,Relative tumor volume,"mouse M12, study day 27, day 0 = 100%",6.2%
same,Tumor volumes,"mouse M12, study day 30",58 mm^3
same,Relative tumor volume,"mouse M12, study day 30, day 0 = 100%",6.4%
same,Tumor volumes,"mouse M12, study day 34",47 mm^3
same,Relative tumor volume,"mouse M12, study day 34, day 0 = 100%",5.2%
same,Tumor volumes,"mouse M12, study day 37",67 mm^3
same,Relative tumor volume,"mouse M12, study day 37, day 0 = 100%",7.4%
same,Tumor volumes,"mouse M12, study day 41",74 mm^3
same,Relative tumor volume,"mouse M12, study day 41, day 0 = 100%",8.2%
same,Tumor volumes,"mouse M12, study day 42",81 mm^3
same,Relative tumor volume,"mouse M12, study day 42, day 0 = 100%",9.0%
